Experiments:
tubulin = target: T1, tubulin (Sus scrofa, UniProt P02550+P02554); assay: Evaluation of the inhibition of tubulin polymerization (turbidimetry); assay type: biochemical, pig; conditions: tubulin 10 μm (1 mg/ml), 37° C., turbidity at 350 nm; concentration that inhibits the rate of polymerization by 50%; read-out: Inhibition of tubulin polymerization IC 50 (μm)
T1 construct: Tubulin is purified from pig brain according to published methods; from tissue; host or cells: pig brain
Summary of the method: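 Pig brain tubulin (>95% pure), 10 μm in MES pH 6.8/30% glycerol buffer plus 1 mM GTP and 6 mM MgCl2, with compound at 0.5–10 μm added before polymerization. Polymerization triggered by shift from 6° C to 37° C, followed by turbidity at 350 nm; IC50 is 50% inhibition of polymerization rate.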

HCT116 cells = assay: Inhibition of proliferation of the human colon tumor line HCT116 ([14C]-thymidine incorporation); assay type: cell-based; conditions: Homo sapiens, HCT-116, 48 h, 48 hours at 37° C., read-out: Inhibition of HCT116 proliferation IC 50 (μm)
Summary of the method: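 HCT116 cells (5000/well) in DMEM with 10% fetal calf serum incubated 48 h at 37° C with [14C]-thymidine (0.1 μCi/well) and compound up to 10 μm (DMSO ≤0.5%). Incorporated radioactivity counted; IC50 is concentration cutting radioactivity by 50% versus untreated control.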

T1 sequence (P02550 whole entry): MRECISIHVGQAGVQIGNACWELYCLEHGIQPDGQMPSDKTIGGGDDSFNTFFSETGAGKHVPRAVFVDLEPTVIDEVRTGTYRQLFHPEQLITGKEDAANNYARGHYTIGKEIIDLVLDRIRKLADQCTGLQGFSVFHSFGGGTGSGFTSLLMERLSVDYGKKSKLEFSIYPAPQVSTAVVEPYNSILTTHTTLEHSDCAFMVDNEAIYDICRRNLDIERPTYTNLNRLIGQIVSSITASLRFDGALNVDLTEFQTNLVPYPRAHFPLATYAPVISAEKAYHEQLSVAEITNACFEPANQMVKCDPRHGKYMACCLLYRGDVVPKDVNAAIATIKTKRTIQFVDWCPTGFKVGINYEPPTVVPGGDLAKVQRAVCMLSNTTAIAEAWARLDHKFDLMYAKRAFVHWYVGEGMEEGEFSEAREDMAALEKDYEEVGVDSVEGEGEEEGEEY
T1 sequence (P02554 whole entry): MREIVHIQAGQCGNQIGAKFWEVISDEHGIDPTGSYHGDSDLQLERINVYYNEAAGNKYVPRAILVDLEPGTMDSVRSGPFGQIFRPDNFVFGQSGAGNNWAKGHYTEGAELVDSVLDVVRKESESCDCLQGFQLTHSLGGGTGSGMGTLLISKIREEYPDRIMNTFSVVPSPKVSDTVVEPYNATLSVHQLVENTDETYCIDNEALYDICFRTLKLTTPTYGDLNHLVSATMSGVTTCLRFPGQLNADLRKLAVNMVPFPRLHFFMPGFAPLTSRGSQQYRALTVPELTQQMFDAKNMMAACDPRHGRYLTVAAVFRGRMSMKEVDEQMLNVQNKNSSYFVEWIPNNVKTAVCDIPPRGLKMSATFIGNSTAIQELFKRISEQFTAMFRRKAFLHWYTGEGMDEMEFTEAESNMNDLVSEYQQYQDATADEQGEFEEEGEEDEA

Question: What does the source list for `Cc1cc(C(=O)N2CCN(c3cccc(Cl)c3)CC2)n(C2CCCCC2)n1` [Example E48, [4-(3-Chlorophenyl)piperazin-1-yl](2-cyclohexyl-5-methyl-2H-pyrazol-3-yl)-methanone]?
Answer: IC50 (tubulin): 3260 nM; IC50 (HCT116 cells): 490 nM

Question: Which IC50 (tubulin) does the source give for `COc1cc(OC)cc(N2CCN(C(=O)c3cc(/C=C/c4ccc(F)cc4)nn3-c3ccccc3)CC2)c1` [Example E87, [4-(3,5-Dimethoxyphenyl)piperazin-1-yl]-{5-[E-2-(4-fluorophenyl)vinyl]-2-phenyl-2H-pyrazol-3-yl}methanone] here?
Answer: 1260 nM

Question: And the IC50 (HCT116 cells)?
Answer: 1280 nM

Question: `Cc1cc(C(=O)N2CCN(c3cccc(Cl)c3)CC2)n(-c2c(F)c(F)cc(F)c2F)n1` [Example E43, [4-(3-Chlorophenyl)piperazin-1-yl][5-methyl-2-(2,3,5,6-tetrafluorophenyl)-2H-pyrazol-3-yl]methanone] was tested. Which IC50 (tubulin) did it give?
Answer: 2170 nM

Question: What about the IC50 (HCT116 cells) of the same compound?
Answer: 1460 nM

Question: `COc1ccc(-n2nc(C)cc2C(=O)N2CCN(c3cccc(OC)c3)CC2)cc1` [3/105] was tested. Which IC50 (tubulin) did it give?
Answer: 4500 nM

Question: And the IC50 (HCT116 cells)?
Answer: 118 nM

Question: Which IC50 (tubulin) does the source give for `Cc1cc(C(=O)N2CCN(c3ccc(C)c(C)c3)CC2)n(-c2ccccc2F)n1` [3/86] here?
Answer: 12500 nM

Question: And the IC50 (HCT116 cells)?
Answer: 385 nM

Question: With `Cc1cc(C(=O)N2CCN(c3cccc(C)c3C)CC2)n(-c2ccccc2)n1` [3/9] as the compound, how does the IC50 (tubulin) read?
Answer: 7000 nM

Question: What about the IC50 (HCT116 cells) of the same compound?
Answer: 494 nM

Question: Which IC50 (tubulin) does the source give for `Cc1cc(C(=O)N2CCN(c3ccc(C)c(C)c3)CC2)n(-c2cccc(Cl)c2)n1` [3/66] here?
Answer: 2000 nM

Question: And the IC50 (HCT116 cells)?
Answer: 73 nM

Question: Which results are given for `CNc1cccc(N2CCN(C(=O)c3cc(C)nn3-c3ccccc3)CC2)c1` [Example E34, [4-(3-Methylaminophenyl)piperazin-1-yl](5-methyl-2-phenyl-2H-pyrazol-3-yl)-methanone]?
Answer: IC50 (tubulin): 800 nM; IC50 (HCT116 cells): 14 nM

Question: With `Cc1cc(C(=O)N2CCN(c3cccc(Cl)c3)CC2)n(-c2cc(Cl)ccc2Cl)n1` [Example E44, [4-(3-Chlorophenyl)piperazin-1-yl][2-(2,5-dichlorophenyl)-5-methyl-2H-pyrazol-3-yl]methanone] as the compound, how does the IC50 (tubulin) read?
Answer: 1680 nM

Question: What about the IC50 (HCT116 cells) of the same compound?
Answer: 236 nM

Question: With `Cc1cc(C(=O)N2CCN(c3ccc(Cl)c(Cl)c3)CC2)n(-c2ccc(F)cc2)n1` [3/146] as the compound, how does the IC50 (tubulin) read?
Answer: 1300 nM

Question: What about the IC50 (HCT116 cells) of the same compound?
Answer: 43 nM

Question: Which IC50 (tubulin) does the source give for `Cc1cc(C(=O)N2CCN(c3ccc4c(c3)OCCO4)CC2)n(-c2ccc(F)cc2)n1` [3/62] here?
Answer: 6000 nM

Question: And the IC50 (HCT116 cells)?
Answer: 71 nM

Question: How did the IC50 (tubulin) turn out when `COc1cc(OC)cc(N2CCN(C(=O)c3cc(-c4ccsc4)nn3-c3ccccc3)CC2)c1` [Example E85, [4-(3,5-Dimethoxyphenyl)piperazin-1-yl][2-phenyl-5-(thiophen-3-yl)-2H-pyrazol-3-yl]methanone] was run?
Answer: 1390 nM

Question: And the IC50 (HCT116 cells)?
Answer: 181 nM

Question: Which IC50 (tubulin) does the source give for `Cc1cc(C(=O)N2CCN(c3cccc(-c4ccccc4)c3)CC2)n(-c2ccccc2)n1` [Example E24, [4-(Biphenyl-3-yl)piperazin-1-yl)(5-methyl-2-phenyl-2H-pyrazol-3-yl)methanone] here?
Answer: 1700 nM

Question: And the IC50 (HCT116 cells)?
Answer: 312 nM

Question: Which IC50 (tubulin) does the source give for `Cc1cc(C(=O)N2CCN(c3cccc(Cl)c3)CC2)n(-c2nccs2)n1` [Example E37, [4-(3-Chlorophenyl)piperazin-1-yl](5-methyl-2-thiazol-2-yl-2H-pyrazol-3-yl)-methanone] here?
Answer: 2000 nM

Question: What about the IC50 (HCT116 cells) of the same compound?
Answer: 37.7 nM

Question: Which results are given for `Cc1cc(C(=O)N2CCN(c3cccc(C(=O)NCCO)c3)CC2)n(-c2ccccc2)n1` [Example E40, N-(2-Hydroxyethyl)-3-[4-(5-methyl-2-phenyl-2H-pyrazole-3-carbonyl)piperazin-1-yl]benzamide]?
Answer: IC50 (tubulin): 1600 nM; IC50 (HCT116 cells): 118 nM

Question: What does the source list for `Cc1ccc(-n2nc(C)cc2C(=O)N2CCN(c3cccc(C(F)(F)F)c3)CC2)cc1` [3/131]?
Answer: IC50 (tubulin): 3100 nM; IC50 (HCT116 cells): 135 nM

Question: How did the IC50 (tubulin) turn out when `Cc1cc(C(=O)N2CCN(c3cccc(O)c3)CC2)n(-c2ccccc2)n1` [Example E13, [4-(3-Hydroxyphenyl)piperazin-1-yl](5-methyl-2-phenyl-2H-pyrazol-3-yl)-methanone] was run?
Answer: 1000 nM

Question: And the IC50 (HCT116 cells)?
Answer: 14.2 nM

Question: With `Cc1cc(C(=S)N2CCN(c3cccc(Cl)c3)CC2)n(-c2ccccc2)n1` [Example E7, [4-(3-Chlorophenyl)piperazin-1-yl](5-methyl-2-phenyl-2H-pyrazol-3-yl)-methanethione] as the compound, how does the IC50 (tubulin) read?
Answer: 1400 nM

Question: And the IC50 (HCT116 cells)?
Answer: 11 nM

Question: What does the source list for `Cc1cccc(N2CCN(C(=O)c3cc(C)nn3-c3ccc(F)cc3)CC2)c1` [3/57]?
Answer: IC50 (tubulin): 1400 nM; IC50 (HCT116 cells): 15 nM

Question: Which IC50 (tubulin) does the source give for `C/C=C/c1cc(C(=O)N2CCN(c3cc(OC)cc(OC)c3)CC2)n(-c2ccccc2)n1` [Example E86] here?
Answer: 870 nM

Question: What about the IC50 (HCT116 cells) of the same compound?
Answer: 6.8 nM

Question: With `Cc1cc(C(=O)N2CCN(c3cccc(Cl)c3Cl)CC2)n(-c2ccccc2)n1` [3/36] as the compound, how does the IC50 (tubulin) read?
Answer: 1800 nM

Question: What about the IC50 (HCT116 cells) of the same compound?
Answer: 119 nM

Question: For `COc1cccc(N2CCN(C(=O)c3cc(C)nn3-c3cccc(F)c3)CC2)c1` [3/96], which IC50 (tubulin) is on record?
Answer: 1800 nM

Question: What about the IC50 (HCT116 cells) of the same compound?
Answer: 3.6 nM

Question: Which IC50 (tubulin) does the source give for `Cc1cc(C(=O)N2CCN(c3ccccc3C)CC2)n(-c2ccccc2F)n1` [3/87] here?
Answer: 15000 nM

Question: And the IC50 (HCT116 cells)?
Answer: 238 nM

Question: For `COc1ccccc1N1CCN(C(=O)c2cc(C)nn2-c2ccc(F)cc2)CC1` [3/102], which IC50 (tubulin) is on record?
Answer: 13000 nM

Question: What about the IC50 (HCT116 cells) of the same compound?
Answer: 181 nM

Question: Which results are given for `Cc1ccnc(N2CCN(C(=O)c3cc(C)nn3-c3ccccc3)CC2)c1` [Example E31, (5-Methyl-2-phenyl-2H-pyrazol-3-yl)[4-(4-methylpyrid-2-yl)piperazin-1-yl]methanone]?
Answer: IC50 (tubulin): 1500 nM; IC50 (HCT116 cells): 20.8 nM

Question: How did the IC50 (tubulin) turn out when `Cc1cc(C(=O)N2CCN(c3cccc(Cl)c3Cl)CC2)n(-c2cccc(F)c2)n1` [3/99] was run?
Answer: 2000 nM

Question: What about the IC50 (HCT116 cells) of the same compound?
Answer: 41 nM

Question: With `O=C(c1cc(-c2cccnc2)nn1-c1ccccc1)N1CCN(c2cccc(Cl)c2)CC1` [Example E67, [4-(3-Chlorophenyl)piperazin-1-yl][2-phenyl-5-(pyrid-3-yl)-2H-pyrazol-3-yl]methanone] as the compound, how does the IC50 (tubulin) read?
Answer: 2300 nM

Question: And the IC50 (HCT116 cells)?
Answer: 237 nM

Question: For `O=C(c1cc(-c2ccccc2)nn1-c1ccccc1)N1CCN(c2cccc(Cl)c2)CC1` [Example E66, [4-(3-Chlorophenyl)piperazin-1-yl](2,5-diphenyl-2H-pyrazol-3-yl)methanone], which IC50 (tubulin) is on record?
Answer: 3700 nM

Question: And the IC50 (HCT116 cells)?
Answer: 1830 nM

Question: With `COc1ccc(-n2nc(C)cc2C(=O)N2CCN(c3cccc(Cl)c3Cl)CC2)cc1` [3/106] as the compound, how does the IC50 (tubulin) read?
Answer: 7000 nM

Question: And the IC50 (HCT116 cells)?
Answer: 985 nM

Question: Which IC50 (tubulin) does the source give for `Cc1cc(C(=O)N2CCN(c3nccs3)CC2)n(-c2ccccc2)n1` [Example E115] here?
Answer: < 25000 nM

Question: What about the IC50 (HCT116 cells) of the same compound?
Answer: 3240 nM

Question: What does the source list for `Cc1cc(C(=O)N2CCN(c3cccc(C(F)(F)F)c3)CC2)n(-c2cccc(F)c2)n1` [3/91]?
Answer: IC50 (tubulin): 1500 nM; IC50 (HCT116 cells): 14 nM

Question: `Cc1cc(C(=O)N2CCN(c3ccc(C)c(C)c3)CC2)n(-c2cccc(F)c2)n1` [3/17] was tested. Which IC50 (tubulin) did it give?
Answer: 3500 nM

Question: What about the IC50 (HCT116 cells) of the same compound?
Answer: 159 nM

Question: `COc1cc(OC)cc(N2CCN(C(=O)c3cc(-c4ccc[nH]4)nn3-c3ccccc3)CC2)c1` [Example E91, [4-(3,5-Dimethoxyphenyl)piperazin-1-yl][2-phenyl-5-(1H-pyrrol-2-yl)-2H-pyrazol-3-yl]methanone] was tested. Which IC50 (tubulin) did it give?
Answer: 1000 nM

Question: What about the IC50 (HCT116 cells) of the same compound?
Answer: 10.5 nM

Question: How did the IC50 (tubulin) turn out when `O=C(c1cc(CNc2ccccc2)nn1-c1ccccc1)N1CCN(c2cccc(Cl)c2)CC1` [Example E76, [4-(3-Chlorophenyl)piperazin-1-yl](2-phenyl-5-phenylaminomethyl-2H-pyrazol-3-yl)methanone] was run?
Answer: 1900 nM

Question: What about the IC50 (HCT116 cells) of the same compound?
Answer: 138 nM

Question: For `Cc1cccc(-n2nc(C)cc2C(=O)N2CCN(c3cccc(Cl)c3Cl)CC2)c1` [3/116], which IC50 (tubulin) is on record?
Answer: 3000 nM

Question: And the IC50 (HCT116 cells)?
Answer: 141 nM

Question: What does the source list for `COc1ccc(Cl)cc1N1CCN(C(=O)c2cc(C)nn2-c2ccccc2F)CC1` [3/88]?
Answer: IC50 (tubulin): 6000 nM; IC50 (HCT116 cells): 60.5 nM

Reference: patent publication US20050130989A1, “N-arylheteroaromatic products compositions containing them and use thereof” (Aventis Pharma S. A., priority 2003, published 2005)
